From patent publication US8377974B2 (Millennium Pharmaceuticals, Inc., priority 2004, dated 2013) come the findings set out here.

SMILES strings stand for the structures.

In this assay the target is T1, human plasma protein factor Xa (Homo sapiens, UniProt P00742).
T1 construct: measure proteolytic activity of the enzyme (factor Xa); purchased Haematologic Technologies (Essex Junction, Vt.); host or cells: human plasma
T1 sequence (P00742 235-488 limits assumed): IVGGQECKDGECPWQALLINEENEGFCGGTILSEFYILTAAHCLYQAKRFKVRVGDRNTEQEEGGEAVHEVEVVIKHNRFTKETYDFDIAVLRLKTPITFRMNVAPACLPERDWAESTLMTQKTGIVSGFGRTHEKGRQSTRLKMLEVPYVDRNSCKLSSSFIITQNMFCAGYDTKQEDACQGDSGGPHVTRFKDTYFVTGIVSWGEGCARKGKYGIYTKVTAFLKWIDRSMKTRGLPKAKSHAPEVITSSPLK
T1 sequence (P00742 41-179 partner limits assumed): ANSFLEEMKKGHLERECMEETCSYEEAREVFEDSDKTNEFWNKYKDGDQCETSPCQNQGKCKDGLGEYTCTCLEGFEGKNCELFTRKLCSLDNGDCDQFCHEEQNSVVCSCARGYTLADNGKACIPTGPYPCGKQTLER
Kind of assay: Factor Xa IC50 determination: cleavage of paranitroanilide substrate S-2765 in 96-well plates. The following applies: fXa 1 nM, S-2765 100 μM, Tris buffered saline pH 7.4, room temperature. The format is biochemical. The essentials:
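Human plasma factor Xa (1 nM) preincubated 5 min at room temperature with inhibitor (0.01 nM–10 μM final) in Tris-buffered saline pH 7.4 with 5 mM CaCl2, 0.1% BSA, 5% DMSO. S-2765 at 100 μM final; hydrolysis at 405 nm over 2 min. IC50 from 4-parameter fit of initial velocities.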
Take `CN(C)C(=N)c1ccc(C2=NOC(CNC(=O)c3ccc(Cl)s3)C2)c(N2CCOCC2)c1` (stereo not drawn) [Example 82, 5-Chloro-thiophene-2-carboxylic acid {3-[4-(N,N-dimethyl-carbamimidoyl)-2-morpholin-4-yl-phenyl]-4,5-dihydro-isoxazol-5-ylmethyl}-amide]: the IC50 (usually the concentration that gives 50% inhibition) is ≤ 100 nM.
As for `CN1CCN=C1c1ccc(C2=NOC(CNC(=O)c3ccc(Cl)s3)C2)c(N2CCOCC2)c1` (stereo not drawn) [Example 83, 5-Chloro-thiophene-2-carboxylic acid {3-[4-(1-methyl-4,5-dihydro-1H-imidazol-2-yl)-2-morpholin-4-yl-phenyl]-4,5-dihydro-isoxazol-5-ylmethyl}-amide], the figure is 100 to 500 nM; as for `N=C(c1ccc(C2=NOC(CNC(=O)c3ccc(Cl)s3)C2)c(N2CCOCC2)c1)N1CCCC1` (stereo not drawn) [Example 84, 5-Chloro-thiophene-2-carboxylic acid {3-[4-(imino-pyrrolidin-1-yl-methyl)-2-morpholin-4-yl-phenyl]-4,5-dihydro-isoxazol-5-ylmethyl}-amide], 100 to 500 nM.
As for `N=C(c1ccc(C2=NOC(CNC(=O)c3ccc(Cl)s3)C2)c(N2CCOCC2)c1)N1CCCCC1` (stereo not drawn) [Example 85, 5-Chloro-thiophene-2-carboxylic acid {3-[4-(imino-piperidin-1-yl-methyl)-2-morpholin-4-yl-phenyl]-4,5-dihydro-isoxazol-5-ylmethyl}-amide], the figure is 100 to 500 nM; as for `COCCN(C)c1cc(C(=N)N(C)C)ccc1C1=NOC(CNC(=O)c2ccc(Cl)s2)C1` (stereo not drawn) [Example 86, 5-Chloro-thiophene-2-carboxylic acid (3-{4-(N,N-dimethyl-carbamimidoyl)-2-[(2-methoxy-ethyl)-methyl-amino]-phenyl}-4,5-dihydro-isoxazol-5-ylmethyl)-amide], ≤ 100 nM; as for `COCCN(C)c1cc(C2=NCCN2C)ccc1C1=NOC(CNC(=O)c2ccc(Cl)s2)C1` (stereo not drawn) [Example 87], 100 to 500 nM.
As for `COCCN(C)c1cc(C(=N)N2CCCC2)ccc1C1=NOC(CNC(=O)c2ccc(Cl)s2)C1` (stereo not drawn) [Example 88, 5-Chloro-thiophene-2-carboxylic acid (3-{4-(imino-pyrrolidin-1-yl-methyl)-2-[(2-methoxy-ethyl)-methyl-amino]-phenyl}-4,5-dihydro-isoxazol-5-ylmethyl)-amide], the figure is 100 to 500 nM; as for `COCCN(C)c1cc(C(=N)N2CCCCC2)ccc1C1=NOC(CNC(=O)c2ccc(Cl)s2)C1` (stereo not drawn) [Example 89, 5-Chloro-thiophene-2-carboxylic acid (3-{4-(imino-piperidin-1-yl-methyl)-2-[(2-methoxy-ethyl)-methyl-amino]-phenyl}-4,5-dihydro-isoxazol-5-ylmethyl)-amide], 100 to 500 nM.
Compound `CN(C)C(=N)c1ccc(C2=NOC(CNC(=O)c3ccc(Cl)s3)C2)c(N2CCCCCC2)c1` (stereo not drawn) [Example 90, 5-Chloro-thiophene-2-carboxylic acid {3-[2-azepan-1-yl-4-(N,N-dimethyl-carbamimidoyl)-phenyl]-4,5-dihydro-isoxazol-5-ylmethyl}-amide] returned a half-inhibitory concentration (IC50) of 100 to 500 nM.
For `CN1CCN=C1c1ccc(C2=NOC(CNC(=O)c3ccc(Cl)s3)C2)c(N2CCCCCC2)c1` (stereo not drawn) [Example 91, 5-Chloro-thiophene-2-carboxylic acid {3-[2-azepan-1-yl-4-(1-methyl-4,5-dihydro-1H-imidazol-2-yl)-phenyl]-4,5-dihydro-isoxazol-5-ylmethyl}-amide], the 50% inhibitory concentration (IC50) is ≤ 100 nM.
To `N=C(c1ccc(C2=NOC(CNC(=O)c3ccc(Cl)s3)C2)c(N2CCCCCC2)c1)N1CCCC1` (stereo not drawn) [Example 92, 5-Chloro-thiophene-2-carboxylic acid {3-[2-azepan-1-yl-4-(imino-pyrrolidin-1-yl-methyl)-phenyl]-4,5-dihydro-isoxazol-5-ylmethyl}-amide] belongs ≤ 100 nM; to `N=C(c1ccc(C2=NOC(CNC(=O)c3ccc(Cl)s3)C2)c(N2CCCCCC2)c1)N1CCCCC1` (stereo not drawn) [Example 93, 5-Chloro-thiophene-2-carboxylic acid {3-[2-azepan-1-yl-4-(imino-piperidin-1-yl-methyl)-phenyl]-4,5-dihydro-isoxazol-5-ylmethyl}-amide], ≤ 100 nM.
As to `CN(C)C(=N)c1ccc(-c2cc(CNC(=O)c3ccc(Cl)s3)on2)c(N(C)C)c1` [Example 94, 5-Chloro-thiophene-2-carboxylic acid {3-[2-dimethylamino-4-(N,N-dimethyl-carbamimidoyl)-phenyl]-isoxazol-5-ylmethyl}-amide], the IC50 was ≤ 100 nM.
As for `CN1CCN=C1c1ccc(-c2cc(CNC(=O)c3ccc(Cl)s3)on2)c(N(C)C)c1` [Example 95, 5-Chloro-thiophene-2-carboxylic acid {3-[2-dimethylamino-4-(1-methyl-4,5-dihydro-1H-imidazol-2-yl)-phenyl]-isoxazol-5-ylmethyl}-amide], the figure is ≤ 100 nM.
To `CN(C)c1cc(C(=N)N2CCCC2)ccc1-c1cc(CNC(=O)c2ccc(Cl)s2)on1` [Example 96, 5-Chloro-thiophene-2-carboxylic acid {3-[2-dimethylamino-4-(imino-pyrrolidin-1-yl-methyl)-phenyl]-isoxazol-5-ylmethyl}-amide] belongs ≤ 100 nM; to `CN(C)c1cc(C(=N)N2CCCCC2)ccc1-c1cc(CNC(=O)c2ccc(Cl)s2)on1` [Example 97, 5-Chloro-thiophene-2-carboxylic acid {3-[2-dimethylamino-4-(imino-piperidin-1-yl-methyl)-phenyl]-isoxazol-5-ylmethyl}-amide], ≤ 100 nM.
As for `CN(C)C(=N)c1ccc(-c2cc(CNC(=O)c3ccc(Cl)s3)on2)c(N2CCOCC2)c1` [Example 98, 5-Chloro-thiophene-2-carboxylic acid {3-[4-(N,N-dimethyl-carbamimidoyl)-2-morpholin-4-yl-phenyl]-isoxazol-5-ylmethyl}-amide], the figure is ≤ 100 nM; as for `CN1CCN=C1c1ccc(-c2cc(CNC(=O)c3ccc(Cl)s3)on2)c(N2CCOCC2)c1` [Example 99, 5-Chloro-thiophene-2-carboxylic acid {3-[4-(1-methyl-4,5-dihydro-1H-imidazol-2-yl)-2-morpholin-4-yl-phenyl]-isoxazol-5-ylmethyl}-amide], ≤ 100 nM.
On to `N=C(c1ccc(-c2cc(CNC(=O)c3ccc(Cl)s3)on2)c(N2CCOCC2)c1)N1CCCC1` [Example 100, 5-Chloro-thiophene-2-carboxylic acid {3-[4-(imino-pyrrolidin-1-yl-methyl)-2-morpholin-4-yl-phenyl]-isoxazol-5-ylmethyl}-amide], for which the half-maximal inhibitory concentration (IC50) was ≤ 100 nM.
As for `N=C(c1ccc(-c2cc(CNC(=O)c3ccc(Cl)s3)on2)c(N2CCOCC2)c1)N1CCCCC1` [Example 101, 5-Chloro-thiophene-2-carboxylic acid {3-[4-(imino-piperidin-1-yl-methyl)-2-morpholin-4-yl-phenyl]-isoxazol-5-ylmethyl}-amide], the figure is ≤ 100 nM; as for `COc1cc(C(=N)N(C)C)ccc1C1=NOC(CNC(=O)c2ccc(Cl)s2)C1` (stereo not drawn) [Example 102, 5-Chloro-thiophene-2-carboxylic acid {3-[4-(N,N-dimethyl-carbamimidoyl)-2-methoxy-phenyl]-4,5-dihydro-isoxazol-5-ylmethyl}-amide], ≤ 100 nM.
